Laboratory results from US20250059175A1, “Mutant Pi3k-Alpha Inhibitors And Their Use As Pharmaceuticals” (Prelude Therapeutics Incorporated, priority 2023, published 2025).

What follows are molecules tested on phosphorylation of AKT on Ser473 (PI3K pathway) in T-47D (heterozygous PIK3CA H1047R) cell line (assay: PI3K pathway activation assay (pAKT Ser473 HTRF), T-47D cells). Conditions: Homo sapiens, T47D, 2 h; T-47D (heterozygous PIK3CA H1047R) cells, two hours of treatment, pAKT Ser473 HTRF; read-out: T47D pAKT IC50.
Assay type: cell-based
Method: The inhibitory activity of the compounds of the disclosure was evaluated by measuring phosphorylation of AKT on Ser473 as a readout of the PI3K pathway using HTRF (CisBio catalog number: 64AKSPE). These studies were conducted in the T-47D (heterozygous PIK3CA H1047R) and SKBR3 (PIK3CA WT) cell lines. Cells were maintained in a 37° C. incubator at 5% CO2 in the following media: T-47D: RPMI 1640, ATCC© Modification (Gibco, A10491-01) supplemented with 10% v/v FBS (Gibco, 26140-079), 1% penicillin streptomycin (Gibco, 15140-122), and 7.4 ug/mL insulin (MilliporeSigma, I9278); SKBR3: McCoy's 5a (Modified) Medium (Gibco, 16600-082) supplemented with 10% v/v FBS (Gibco, 26140-079). Cells were seeded in 384-well plates at a density of 4,000 cells/well. Compounds dissolved in DMSO were added using a digital dispense (D300E, Tecan) 10-point serial dilution. After two hours of treatment, cells were lysed for thirty minutes and then incubated with detection reagents per HTRF kit material and manufacturer's instructions. Fluorescence signal was measured with a multimode plate reader (Envision 2105, Perkin Elmer). Fluorescent signal was normalized to background and DMSO controls to obtain percent inhibition/activity for each compound.

SMILES | IC50 [nM]
Cc1cc([C@@H](C)Nc2ccc(Cl)nc2C(=O)O)nc(N2C(=O)OC[C@@H]2CC2CCC2)c1 [Example 47, 6-Chloro-3-(((R)-1-(6-((S)-4-(cyclobutylmethyl)-2-oxooxazolidin-3-yl)-4-methylpyridin-2-yl)ethyl)amino)picolinic acid] | < 100
Cc1cc([C@@H](C)Nc2ccc(Cl)nc2C(=O)O)nc(N2C(=O)OC[C@@H]2Cc2ccc3nn(C)cc3c2)c1 [Example 43, 6-Chloro-3-(((R)-1-(4-methyl-6-((S)-4-((2-methyl-2H-indazol-5-yl)methyl)-2-oxooxazolidin-3-yl)pyridin-2-yl)ethyl)amino)picolinic acid] | < 100
Cc1cc([C@@H](C)Nc2ccc(Cl)nc2C(=O)O)nc(N2C(=O)OC[C@@H]2Cc2ccc(C(=O)OC(C)(C)C)cc2)c1 [Example 25, 3-(((R)-1-(6-((S)-4-(4-(tert-Butoxycarbonyl)benzyl)-2-oxooxazolidin-3-yl)-4-methylpyridin-2-yl)ethyl)amino)-6-chloropicolinic acid] | 100 to 1000
Cc1cc([C@@H](C)Nc2ccc(Cl)nc2C(=O)O)nc(N2C(=O)OC[C@@H]2Cc2ccc(C(=O)N(C)C)cc2)c1 [Example 51, 6-Chloro-3-(((R)-1-(6-((S)-4-(4-(dimethylcarbamoyl)benzyl)-2-oxooxazolidin-3-yl)-4-methylpyridin-2-yl)ethyl)amino)picolinic acid] | 100 to 1000
Cc1cc([C@@H](C)Nc2ccc(Cl)nc2C(=O)O)nc(N2C(=O)OC[C@@H]2Cc2cn(C)c3ccccc23)c1 [Example 37, 6-Chloro-3-(((R)-1-(4-methyl-6-((S)-4-((1-methyl-1H-indol-3-yl)methyl)-2-oxooxazolidin-3-yl)pyridin-2-yl)ethyl)amino)picolinic acid] | < 100
Cc1cc([C@@H](C)Nc2ccc(Cl)nc2C(=O)O)nc(N2C(=O)OC[C@]2(C)Cc2ccccc2)c1 [Example 54, 3-(((R)-1-(6-((S)-4-Benzyl-4-methyl-2-oxooxazolidin-3-yl)-4-methylpyridin-2-yl)ethyl)amino)-6-chloropicolinic acid] | 100 to 1000
CC(Nc1ccc(F)nc1C(=O)O)c1cc(Cl)cc(N2C(=O)OC[C@@H]2Cc2ccccc2)c1 (stereo partly drawn) [Example 7, 3-((1-(3-((S)-4-Benzyl-2-oxooxazolidin-3-yl)-5-chlorophenyl)ethyl)amino)-6-fluoropicolinic acid] | 100 to 1000
Cc1cc([C@@H](C)Nc2ccc(Cl)nc2C(=O)O)nc(N2C(=O)OC[C@@H]2Cc2cn(C)c3ncccc23)c1 [Example 39, 6-Chloro-3-(((R)-1-(4-methyl-6-((S)-4-((1-methyl-1H-pyrrolo[2,3-b]pyridin-3-yl)methyl)-2-oxooxazolidin-3-yl)pyridin-2-yl)ethyl)amino)picolinic acid] | < 100
CON(C)C(=O)c1ccc(C[C@H]2COC(=O)N2c2cc(C)cc([C@@H](C)Nc3ccc(Cl)nc3C(=O)O)n2)cc1 [Example 52, 6-Chloro-3-(((R)-1-(6-((S)-4-(4-(methoxy(methyl)carbamoyl)benzyl)-2-oxooxazolidin-3-yl)-4-methylpyridin-2-yl)ethyl)amino)picolinic acid] | 100 to 1000
Cc1cc([C@@H](C)Nc2ccc(Cl)nc2C(=O)O)nc(N2C(=O)OC[C@@H]2Cc2cccc3ccccc23)c1 [Example 31, 6-Chloro-3-(((R)-1-(4-methyl-6-((S)-4-(naphthalen-1-ylmethyl)-2-oxooxazolidin-3-yl)pyridin-2-yl)ethyl)amino)picolinic acid] | 100 to 1000
Cc1cc([C@@H](C)Nc2ccc(Cl)nc2C(=O)O)nc(N2C(=O)OC[C@@H]2Cc2ccc3c(cnn3C)c2)c1 [Example 42, 6-Chloro-3-(((R)-1-(4-methyl-6-((S)-4-((1-methyl-1H-indazol-5-yl)methyl)-2-oxooxazolidin-3-yl)pyridin-2-yl)ethyl)amino)picolinic acid] | < 100
Cc1cc(C(C)Nc2cccnc2C(=O)O)nc(N2C(=O)OC[C@@H]2Cc2ccccc2)c1 (single isomer, unassigned) [Example 13] | 100 to 1000
Cc1cc(C(C)Nc2ccc(Cl)nc2C(=O)O)cc(N2C(=O)OC[C@@H]2Cc2ccccc2)c1 (single isomer, unassigned) [Example 2] | 100 to 1000
Cc1cc([C@@H](C)Nc2ccc(Cl)nc2C(=O)O)nc(N2C(=O)OC[C@@H]2Cc2ccncc2)c1 [Example 28, 6-Chloro-3-(((R)-1-(4-methyl-6-((S)-2-oxo-4-(pyridin-4-ylmethyl)oxazolidin-3-yl)pyridin-2-yl)ethyl)amino)picolinic acid] | 100 to 1000
Cc1cc([C@@H](C)Nc2ccc(Cl)nc2C(=O)O)nc(N2C(=O)OC[C@@H]2CCc2ccccc2)c1 [Example 53, 6-Chloro-3-(((R)-1-(4-methyl-6-((S)-2-oxo-4-phenethyloxazolidin-3-yl)pyridin-2-yl)ethyl)amino)picolinic acid] | 100 to 1000
CC(Nc1ccc(F)nc1C(=O)O)c1cc(F)cc(N2C(=O)OC[C@@H]2Cc2ccccc2)c1 (stereo partly drawn) [Example 5, 3-((1-(3-((S)-4-Benzyl-2-oxooxazolidin-3-yl)-5-fluorophenyl)ethyl)amino)-6-fluoropicolinic acid] | 100 to 1000
Cc1cc([C@@H](C)Nc2ccc(Cl)nc2C(=O)O)nc(N2C(=O)OC[C@@H]2Cc2cc(C)ncc2F)c1 [Example 30, 6-Chloro-3-(((R)-1-(6-((S)-4-((5-fluoro-2-methylpyridin-4-yl)methyl)-2-oxooxazolidin-3-yl)-4-methylpyridin-2-yl)ethyl)amino)picolinic acid] | 100 to 1000
Cc1cc(C(C)Nc2ccc(C)nc2C(=O)O)nc(N2C(=O)OC[C@@H]2Cc2ccccc2)c1 (single isomer, unassigned) [Example 14] | 100 to 1000
CC(Nc1ccc(F)nc1C(=O)O)c1cc(N2C(=O)OC[C@@H]2Cc2ccccc2)cc(C(F)(F)F)c1 (stereo partly drawn) [Example 8, 3-((1-(3-((S)-4-Benzyl-2-oxooxazolidin-3-yl)-5-(trifluoromethyl)phenyl)ethyl)amino)-6-fluoropicolinic acid] | 1000 to 10000
CC(Nc1ccc(Cl)nc1C(=O)O)c1cc(Cl)cc(N2C(=O)OC[C@@H]2Cc2ccccc2)c1 (stereo partly drawn) [Example 6, 3-((1-(3-((S)-4-Benzyl-2-oxooxazolidin-3-yl)-5-chlorophenyl)ethyl)amino)-6-chloropicolinic acid] | 100 to 1000
Cc1cccc(C[C@H]2COC(=O)N2c2cc(F)cc([C@@H](C)Nc3ccc(Cl)nc3C(=O)O)c2)c1 [Example 62, 6-Chloro-3-(((R)-1-(3-fluoro-5-((S)-4-(3-methylbenzyl)-2-oxooxazolidin-3-yl)phenyl)ethyl)amino)picolinic acid] | 100 to 1000
Cc1cc(C(C)Nc2ccc(C(F)(F)F)nc2C(=O)O)nc(N2C(=O)OC[C@@H]2Cc2ccccc2)c1 (single isomer, unassigned) [Example 15] | 1000 to 10000
COc1ccc(NC(C)c2cc(C)cc(N3C(=O)OC[C@@H]3Cc3ccccc3)n2)c(C(=O)O)n1 (single isomer, unassigned) [Example 16] | 100 to 1000
Cc1cc([C@@H](C)Nc2ccc(Cl)nc2C(=O)O)nc(N2C(=O)OCC[C@@H]2Cc2ccccc2)c1 [Example 56, 3-(((R)-1-(6-((S)-4-Benzyl-2-oxo-1,3-oxazinan-3-yl)-4-methylpyridin-2-yl)ethyl)amino)-6-chloropicolinic acid] | 100 to 1000
Cc1cc([C@@H](C)Nc2ccc(Cl)nc2C(=O)O)nc(N2C(=O)OC[C@@H]2Cc2c[nH]c3ccccc23)c1 [Example 50, 3-(((R)-1-(6-((S)-4-((1H-Indol-3-yl)methyl)-2-oxooxazolidin-3-yl)-4-methylpyridin-2-yl)ethyl)amino)-6-chloropicolinic acid] | 100 to 1000

Same assay, conditions: T-47D (heterozygous PIK3CA H1047R) cells, two hours of treatment, pAKT Ser473 HTRF; read-out: T47D pAKT IC50

SMILES | IC50 [nM]
Cc1cc([C@@H](C)Nc2ccc(Cl)nc2C(=O)O)nc(N2C(=O)OC[C@@H]2Cc2cccn3ccnc23)c1 [Example 44, 6-Chloro-3-(((R)-1-(6-((S)-4-(imidazo[1,2-α]pyridin-8-ylmethyl)-2-oxooxazolidin-3-yl)-4-methylpyridin-2-yl)ethyl)amino)picolinic acid] | 100 to 1000
Cc1cc([C@@H](C)Nc2ccc(Cl)nc2C(=O)O)nc(N2C(=O)OC[C@@H]2Cc2ccc3cncn3c2)c1 [Example 41, 6-Chloro-3-(((R)-1-(6-((S)-4-(imidazo[1,5-α]pyridin-6-ylmethyl)-2-oxooxazolidin-3-yl)-4-methylpyridin-2-yl)ethyl)amino)picolinic acid] | 100 to 1000
Cc1cc([C@@H](C)Nc2ccc(Cl)nc2C(=O)O)nc(N2C(=O)OC[C@@H]2Cc2cccn3nccc23)c1 [Example 45, 6-Chloro-3-(((R)-1-(4-methyl-6-((S)-2-oxo-4-(pyrazolo[1,5-α]pyridin-4-ylmethyl)oxazolidin-3-yl)pyridin-2-yl)ethyl)amino)picolinic acid] | < 100
Cc1cc([C@@H](C)Nc2ccc(Cl)nc2C(=O)O)nc(N2C(=O)OC[C@@H]2Cc2cnn3ccccc23)c1 [Example 46, 6-Chloro-3-(((R)-1-(4-methyl-6-((S)-2-oxo-4-(pyrazolo[1,5-α]pyridin-3-ylmethyl)oxazolidin-3-yl)pyridin-2-yl)ethyl)amino)picolinic acid] | < 100
